In patent publication US10183936B2, “Hepatitis B core protein allosteric modulators” (priority 2014, dated 2019):

How the values were obtained:
AD38 cells = experiment: Viability of AD38 cells (Promega CellTiter-Glo) at the end of compound treatment; type: cell-based; conditions: 10 μM compound, 6 days, luminescence normalized against DMSO control wells (controls being 100%)
Procedure, shortened: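 AD38 cells seeded at 50,000/well received compound from a 10× solution in 10% DMSO and were incubated 6 days at 37° C. Viability was then read by CellTiter-Glo luminescence in tetracycline-free medium with 2% FBS and 1% DMSO, normalized to DMSO control wells (100%) and reported as percent viability.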

[1] = tested on: HBV viral production in AD38 cells; experiment: Viral load production in AD38 cells by quantitative PCR of the HBV core sequence in supernatant; type: cell-based; conditions: 10 μM compound, 6 days at 37° C., viral load in supernatant compared against DMSO control wells; for activity at 10 µM: Hepatitis B virus, 144 h, read-out: AD38 Viral Load (CpAM/DMSO %) at 10 μM
Procedure, shortened: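 AD38 cells seeded at 50,000/well, treated 6 days at 37° C with compound added as 10× solution in 10% DMSO. HBV core sequence in clarified supernatant quantified by TaqMan qPCR against known standards; viral load compared with DMSO control wells.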

## O=C(NCCOc1ccc(F)cc1)c1ccc2c(c1)NC(=O)c1ccccc1S2 [Compound 1208]
AD38 cells
  AD38 Viability Normalized Result (CPAM/DMSO %) at 10 μM: 103%
[1]
  activity at 10 µM: 11%

## O=C(NCc1cncs1)c1ccc2c(c1)NC(=O)c1ccccc1S2(=O)=O [Compound 1455]
AD38 cells
  AD38 Viability Normalized Result (CPAM/DMSO %) at 10 μM: 89%
[1]
  activity at 10 µM: 3%

## O=C(NCCc1ccc(-n2nccn2)cc1)c1ccc2c(c1)NC(=O)c1ccccc1S2(=O)=O [Compound 1626]
AD38 cells
  AD38 Viability Normalized Result (CPAM/DMSO %) at 10 μM: 118%
[1]
  activity at 10 µM: 0%

## N#Cc1ccc(CCNC(=O)c2ccc3c(c2)NC(=O)c2ccccc2S3)cc1 [Compound 1120]
AD38 cells
  AD38 Viability Normalized Result (CPAM/DMSO %) at 10 μM: 94%
[1]
  activity at 10 µM: 7%

## Cc1cc2c(cc1C(=O)NCCC1CCCCC1)NC(=O)c1ccccc1S2 [Compound 1275]
AD38 cells
  AD38 Viability Normalized Result (CPAM/DMSO %) at 10 μM: 93%
[1]
  activity at 10 µM: 3%

## O=C(Nc1nc2ccc(F)cc2s1)c1ccc2c(c1)NC(=O)c1ccccc1S2(=O)=O [Compound 1637]
AD38 cells
  AD38 Viability Normalized Result (CPAM/DMSO %) at 10 μM: 123%
[1]
  activity at 10 µM: 32%

## O=C(Nc1nncs1)c1ccc2c(c1)NC(=O)c1cc(F)ccc1S2 [Compound 1442]
AD38 cells
  AD38 Viability Normalized Result (CPAM/DMSO %) at 10 μM: 99%
[1]
  activity at 10 µM: 65%

## CN(C)S(=O)(=O)c1ccc(CCNC(=O)c2ccc3c(c2)NC(=O)c2ccccc2[S+]3[O-])cc1 (centres unmarked) [Compound 1486]
AD38 cells
  AD38 Viability Normalized Result (CPAM/DMSO %) at 10 μM: 94%
[1]
  activity at 10 µM: 53%

## O=C(NCCOc1ccccc1)c1ccc2c(c1)NC(=O)c1ccccc1S2 [Compound 1192]
AD38 cells
  AD38 Viability Normalized Result (CPAM/DMSO %) at 10 μM: 81%
[1]
  activity at 10 µM: 3%

## O=C(NCc1cccnc1)c1ccc2c(c1)NC(=O)c1ccccc1N2Cc1ccccc1 [Compound 1493]
AD38 cells
  AD38 Viability Normalized Result (CPAM/DMSO %) at 10 μM: 80%
[1]
  activity at 10 µM: 51%

## O=C(NCCc1ccc(-n2ccnc2)cc1)c1ccc2c(c1)NC(=O)c1ccccc1S2 [Compound 1248]
AD38 cells
  AD38 Viability Normalized Result (CPAM/DMSO %) at 10 μM: 106%
[1]
  activity at 10 µM: 3%

## O=C(NCc1cncs1)c1ccc2c(c1)NC(=O)c1cccc(F)c1S2 [Compound 1407]
AD38 cells
  AD38 Viability Normalized Result (CPAM/DMSO %) at 10 μM: 103%
[1]
  activity at 10 µM: 3%

## O=C(NCc1cncs1)c1ccc2c(c1)NC(=O)c1ccccc1[SH]2O (centres unmarked) [Compound 1535]
AD38 cells
  AD38 Viability Normalized Result (CPAM/DMSO %) at 10 μM: 85%
[1]
  AD38 Viral Load (CpAM/DMSO %) at 10 μM: 108%

## O=C(NCCc1ccc(-c2ccccc2)cc1)c1ccc2c(c1)NC(=O)c1ccccc1N2Cc1ccccc1 [Compound 1483]
AD38 cells
  AD38 Viability Normalized Result (CPAM/DMSO %) at 10 μM: 98%
[1]
  activity at 10 µM: 65%

## Cc1nnc(NC(=O)c2ccc3c(c2)NC(=O)c2cc(F)ccc2S3)o1 [Compound 1503]
AD38 cells
  AD38 Viability Normalized Result (CPAM/DMSO %) at 10 μM: 87%
[1]
  activity at 10 µM: 40%

## NC(=O)c1ccc2c(c1)NC(=O)c1ccccc1S2 [Compound 1525]
AD38 cells
  AD38 Viability Normalized Result (CPAM/DMSO %) at 10 μM: 85%
[1]
  activity at 10 µM: 78%

## CNC(=O)c1ccc2c(c1)Sc1ccc(C(=O)NCCc3ccccc3)cc1NC2=O [Compound 1280, N^3-methyl-11-oxo-N^8-phenethyl-10, 11-dihydrodibenzo [b,f] [1,4] thiazepine-3,8-dicarboxamide]
AD38 cells
  AD38 Viability Normalized Result (CPAM/DMSO %) at 10 μM: 94%
[1]
  activity at 10 µM: 74%

## O=C(Nc1ccncn1)c1ccc2c(c1)NC(=O)c1cc(F)ccc1S2 [Compound 1344]
AD38 cells
  AD38 Viability Normalized Result (CPAM/DMSO %) at 10 μM: 102%
[1]
  activity at 10 µM: 96%

## O=C(Nc1cccc(-c2ccccc2)c1)c1ccc2c(c1)NC(=O)c1ccc(F)cc1S2 [Compound 1358]
AD38 cells
  AD38 Viability Normalized Result (CPAM/DMSO %) at 10 μM: 72%
[1]
  activity at 10 µM: 15%

## O=C1Nc2cc(S(=O)(=O)Nc3cncnc3)ccc2Sc2ccccc21 [Compound 1505]
AD38 cells
  AD38 Viability Normalized Result (CPAM/DMSO %) at 10 μM: 85%
[1]
  activity at 10 µM: 81%

## O=C(NCc1ccccc1)c1ccc2c(c1)NC(=O)c1ccccc1S2(=O)=O [Compound 1620]
AD38 cells
  AD38 Viability Normalized Result (CPAM/DMSO %) at 10 μM: 111%
[1]
  activity at 10 µM: 3%

## O=C(NC(Cc1nnc[nH]1)c1ccccc1)c1ccc2c(c1)NC(=O)c1ccccc1S2 (centres unmarked) [Compound 1552]
AD38 cells
  AD38 Viability Normalized Result (CPAM/DMSO %) at 10 μM: 93%
[1]
  activity at 10 µM: 64%

## O=C(NCC1CCOC1)c1ccc2c(c1)NC(=O)c1ccccc1S2 (centres unmarked) [Compound 1606]
AD38 cells
  AD38 Viability Normalized Result (CPAM/DMSO %) at 10 μM: 104%
[1]
  activity at 10 µM: 7%

## O=C(NCc1cccnc1)c1ccc2c(c1)NC(=O)c1ccc(F)cc1S2 [Compound 1365]
AD38 cells
  AD38 Viability Normalized Result (CPAM/DMSO %) at 10 μM: 105%
[1]
  activity at 10 µM: 2%

## CC(=O)Nc1cccc(NC(=O)c2ccc3c(c2)NC(=O)c2ccccc2S3)c1 [Compound 1243]
AD38 cells
  AD38 Viability Normalized Result (CPAM/DMSO %) at 10 μM: 118%
[1]
  activity at 10 µM: 20%

## O=C(NC[C@@H](CO)c1ccccc1)c1ccc2c(c1)NC(=O)c1ccccc1S2 [Compound 1259]
AD38 cells
  AD38 Viability Normalized Result (CPAM/DMSO %) at 10 μM: 84%
[1]
  activity at 10 µM: 11%

## O=C(NCCc1ccc(N2CCCCC2)cc1)c1ccc2c(c1)NC(=O)c1ccccc1S2 [Compound 1121]
AD38 cells
  AD38 Viability Normalized Result (CPAM/DMSO %) at 10 μM: 109%
[1]
  activity at 10 µM: 6%

## O=C(Nc1cccc(-c2cccnc2)c1)c1ccc2c(c1)NC(=O)c1cc(F)ccc1S2 [Compound 1400]
AD38 cells
  AD38 Viability Normalized Result (CPAM/DMSO %) at 10 μM: 105%
[1]
  activity at 10 µM: 34%

## O=C(NCC1CC1)c1ccc2c(c1)NC(=O)c1ccccc1S2 [Compound 1173]
AD38 cells
  AD38 Viability Normalized Result (CPAM/DMSO %) at 10 μM: 105%
[1]
  activity at 10 µM: 39%

## COC(C)(C)CCNC(=O)c1ccc2c(c1)NC(=O)c1ccccc1S2 [Compound 1238]
AD38 cells
  AD38 Viability Normalized Result (CPAM/DMSO %) at 10 μM: 104%
[1]
  activity at 10 µM: 26%

## O=C1Nc2cc(S(=O)(=O)Nc3ccc(Cl)cc3F)ccc2Sc2ccccc21 [Compound 1544]
AD38 cells
  AD38 Viability Normalized Result (CPAM/DMSO %) at 10 μM: 97%
[1]
  activity at 10 µM: 40%

## O=C(NCc1cnco1)c1ccc2c(c1)NC(=O)c1ccccc1N2Cc1ccccc1 [Compound 1492]
AD38 cells
  AD38 Viability Normalized Result (CPAM/DMSO %) at 10 μM: 79%
[1]
  activity at 10 µM: 39%

## O=C(NCCc1cncnc1)c1cc2c(cc1F)Sc1ccccc1C(=O)N2 [Compound 1411]
AD38 cells
  AD38 Viability Normalized Result (CPAM/DMSO %) at 10 μM: 91%
[1]
  activity at 10 µM: 66%

## O=C(NCc1cncs1)c1ccc2c(c1)NC(=O)c1ccccc1N2Cc1ccccc1 [Compound 1510]
AD38 cells
  AD38 Viability Normalized Result (CPAM/DMSO %) at 10 μM: 82%
[1]
  activity at 10 µM: 62%

## O=C1Nc2c(cc(F)c(C(=O)NCCc3cncs3)c2F)Sc2ccccc21 [Compound 1563]
AD38 cells
  AD38 Viability Normalized Result (CPAM/DMSO %) at 10 μM: 93%
[1]
  activity at 10 µM: 41%

## O=C1Nc2c(cc(F)c(C(=O)NCc3cnco3)c2F)Sc2ccccc21 [Compound 1530]
AD38 cells
  AD38 Viability Normalized Result (CPAM/DMSO %) at 10 μM: 93%
[1]
  activity at 10 µM: 70%

## O=C(O)c1ccc2c(c1)Sc1ccc(C(=O)NCCC3CCCCC3)cc1NC2=O [Compound 1282, 8-((2-cyclohexylethyl)carbamoyl)-11-oxo-10, 11-dihydrodibenzo [b, f] [1,4] thiazepine-3-carboxylic acid]
AD38 cells
  AD38 Viability Normalized Result (CPAM/DMSO %) at 10 μM: 105%
[1]
  activity at 10 µM: 102%

## O=C1Nc2cc(S(=O)(=O)Nc3ccc(F)cc3F)ccc2Sc2ccccc21 [Compound 1526]
AD38 cells
  AD38 Viability Normalized Result (CPAM/DMSO %) at 10 μM: 92%
[1]
  activity at 10 µM: 57%

## Cc1c(C(=O)NCc2cnco2)ccc2c1NC(=O)c1ccccc1S2 [Compound 1514]
AD38 cells
  AD38 Viability Normalized Result (CPAM/DMSO %) at 10 μM: 84%
[1]
  activity at 10 µM: 13%

## O=C1Nc2cc(CNCCc3ccccc3)ccc2Sc2ccccc21 [Compound 1357, 8-((phenethylamino)methyl) dibenzo [b,f] [1,4] thiazepin-11(10H)-one]
AD38 cells
  AD38 Viability Normalized Result (CPAM/DMSO %) at 10 μM: 115%
[1]
  activity at 10 µM: 39%

## O=C(NCCc1cncs1)c1ccc2c(c1)NC(=O)c1cc(F)ccc1S2 [Compound 1418]
AD38 cells
  AD38 Viability Normalized Result (CPAM/DMSO %) at 10 μM: 73%
[1]
  activity at 10 µM: 12%

## CN1C(=O)c2ccccc2Sc2ccc(C(=O)NCCc3cccc(O)c3)cc21 [Compound 1133]
AD38 cells
  AD38 Viability Normalized Result (CPAM/DMSO %) at 10 μM: 99%
[1]
  activity at 10 µM: 94%

## O=C(NCCc1cncs1)c1ccc2c(c1)NC(=O)c1cccc(F)c1S2 [Compound 1528]
AD38 cells
  AD38 Viability Normalized Result (CPAM/DMSO %) at 10 μM: 85%
[1]
  activity at 10 µM: 4%

## CN1c2ccc(C(=O)NCCc3cncs3)cc2NC(=O)c2ccccc21 [Compound 1532]
AD38 cells
  AD38 Viability Normalized Result (CPAM/DMSO %) at 10 μM: 112%
[1]
  activity at 10 µM: 17%

## O=C(NCc1ccncc1)c1ccc2c(c1)NC(=O)c1ccccc1S2 [Compound 1572]
AD38 cells
  AD38 Viability Normalized Result (CPAM/DMSO %) at 10 μM: 116%
[1]
  activity at 10 µM: 5%

## O=C(NCCc1cncnc1)c1ccc2c(c1)NC(=O)c1c(F)cccc1S2 [Compound 1543]
AD38 cells
  AD38 Viability Normalized Result (CPAM/DMSO %) at 10 μM: 90%
[1]
  activity at 10 µM: 72%

## O=C(NCc1ccccc1O)c1ccc2c(c1)NC(=O)c1ccccc1S2 [Compound 1219]
AD38 cells
  AD38 Viability Normalized Result (CPAM/DMSO %) at 10 μM: 100%
[1]
  activity at 10 µM: 5%

## O=C(Nc1ccncc1)c1ccc2c(c1)NC(=O)c1c(F)cccc1S2 [Compound 1463]
AD38 cells
  AD38 Viability Normalized Result (CPAM/DMSO %) at 10 μM: 97%
[1]
  activity at 10 µM: 31%

## CCOC(=O)C(NC(=O)c1ccc2c(c1)NC(=O)c1cc(F)ccc1S2)c1ccncc1 (centres unmarked) [Compound 1405]
AD38 cells
  AD38 Viability Normalized Result (CPAM/DMSO %) at 10 μM: 94%
[1]
  activity at 10 µM: 14%

## O=C(NCCc1ccc(-c2ccccc2)cc1)c1ccc2c(c1)NC(=O)c1ccc(F)cc1S2 [Compound 1371]
AD38 cells
  AD38 Viability Normalized Result (CPAM/DMSO %) at 10 μM: 94%
[1]
  activity at 10 µM: 6%

## O=C(Nc1ccc(F)cn1)c1ccc2c(c1)NC(=O)c1cc(F)ccc1S2 [Compound 1336]
AD38 cells
  AD38 Viability Normalized Result (CPAM/DMSO %) at 10 μM: 90%
[1]
  activity at 10 µM: 70%

## CN1c2ccc(C(=O)NCCc3ccc(-c4ccccc4)cc3)cc2NC(=O)c2ccccc21 [Compound 1521]
AD38 cells
  AD38 Viability Normalized Result (CPAM/DMSO %) at 10 μM: 22%
[1]
  activity at 10 µM: 1%
